Measurements reported in patent US11518758B2, “Heteroarylaminopyrimidine amide autophagy inhibitors and methods of use thereof” (Deciphera Pharmaceuticals, LLC, priority 2019, dated 2022).

Tests used:
ULK2 kinase = molecular target: T1, ULK2 kinase (Homo sapiens, UniProt Q8IYT8); assay: Biochemical assay for ULK2 (coupled pyruvate kinase/lactate dehydrogenase assay); conditions: 9.7 nM ULK2 (Eurofins), myelin basic protein, 1 mM ATP; read-out: ULK2.2
T1 construct: purchased Eurofins 14-772
Description: Example 176. Biochemical Assay for ULK2
(§1) Activity of ULK2 kinase was determined spectroscopically using a coupled pyruvate kinase/lactate dehydrogenase assay that continuously monitors the ATP hydrolysis-dependent oxidation of NADH (e.g., Schindler et al. Science (2000) 289: 1938-1942). Assays were conducted in 384-well plates (100 uL final volume) using 9.7 nM ULK2 (Eurofins CAT #14-772), 0.25 mg/mL myelin basic protein, 1.5 units pyruvate kinase, 2.1 units lactate dehydrogenase, 1 mM phosphoenol pyruvate, 0.28 mM NADH and 1 mM ATP in assay buffer (100 mM Tris, pH 7.5, 15 mM MgCl2, 0.5 mM DTT, 0.1% octyl-glucoside, 0.002% (w/v) BSA, and 0.002% Triton X-100). Inhibition of ULK2 was measured by adding serial diluted test compound (final assay concentration of 1% DMSO). A decrease in absorption at 340 nm was monitored continuously for 6 hours at 30° C. on a multi-mode microplate reader (BioTek). The reaction rate was calculated using the 2-3 h time frame. The reaction rate at each concentration of compound was converted to percent inhibition using controls (i.e. reaction with no test compound and reaction with a known inhibitor) and IC50 values were calculated by fitting a four-parameter sigmoidal curve to the data using Prism (GraphPad software).

ULK1 kinase = molecular target: T2, ULK1 kinase (Homo sapiens, UniProt O75385); assay: Biochemical assay for ULK1.2 (coupled pyruvate kinase/lactate dehydrogenase assay); conditions: 19 nM ULK1 (Eurofins), myelin basic protein, 1 mM ATP
T2 construct: purchased Eurofins 14-959
T2 sequence (O75385 with tags, fused parts or gaps): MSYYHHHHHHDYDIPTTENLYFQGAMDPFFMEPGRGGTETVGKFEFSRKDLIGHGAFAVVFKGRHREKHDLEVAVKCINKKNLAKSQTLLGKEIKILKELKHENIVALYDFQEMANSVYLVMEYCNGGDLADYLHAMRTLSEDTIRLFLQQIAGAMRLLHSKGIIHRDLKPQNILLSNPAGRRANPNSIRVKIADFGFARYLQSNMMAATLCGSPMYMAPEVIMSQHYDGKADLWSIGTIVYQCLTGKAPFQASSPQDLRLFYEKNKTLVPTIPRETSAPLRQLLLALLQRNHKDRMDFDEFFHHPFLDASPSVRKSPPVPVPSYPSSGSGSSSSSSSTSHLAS
Description: Example 174. Biochemical Assay for ULK1.2
as §1, with “ULK1” for “ULK2”, “19” for “9.7”, “#14-959),” for “#14-772),”

[1] = tested on: phospho-Serine 318 ATG13 (pATG13), ULK kinase substrate, in A549 (KRAS mutant) cells; assay: pATG13 levels of mutant KRas A549 cells after treatment with ULK inhibitors in combination with trametinib (ELISA); format: cell-based, human; conditions: with 250 nM trametinib
Description: Example 177. Cellular Inhibition of ULK Kinase Substrate ATG13 Protein pATG13 Levels of Mutant KRas A549 Cells after Treatment with ULK Inhibitors in Combination with Trametinib
A549 (KRAS mutant) human lung cancer cells (6,000 cells/well) were added to a 384-well tissue-culture treated plate in 50 μL of pre-warmed DMEM medium supplemented with 10% characterized fetal bovine serum (Invitrogen, Carlsbad, Calif.), 100 units/mL penicillin G, and 100 μg/mL streptomycin and allowed to grow overnight at 37° C., 5% CO2, and 95% humidity. The following day, 10 μL of media containing trametinib or DMSO as a control was added to wells. The final concentration of trametinib in wells was 250 nM. A dose response of a test compound (0.6 μL per well) was added. DMSO (0.6 μL) was added to control wells. The plate was briefly shaken to mix wells and then incubated at 37° C. overnight. The next day, the media was aspirated and cells were washed with Dulbecco's Phosphate Buffered Saline (Gibco). Cells were lysed using MPER lysis buffer (Pierce, Rockford, Ill.) containing Halt Phosphatase and Protease Inhibitors (Pierce, Rockford, Ill.) and Phosphatase inhibitor cocktail 2 (Sigma, St. Louis, Mo.) at 4° C. for 10 minutes with shaking.
Cellular levels of phospho-Serine 318 ATG13 (pATG13) were measured via an ELISA method. Total ATG13 Antibody (Cell Signaling Cat #13273) was used to coat the wells. The plate was incubated at 4° C. overnight and washed with ELISA wash buffer (Biolegend Cat #421601). The wells were then blocked with assay diluent (Biolegend Cat #421203) for 1 hour at room temperature. Plate wells were washed with ELISA wash buffer. Cell lysate was added to wells and incubated at room temperature for 2 hours. Plate wells were washed with ELISA wash buffer. Biotinylated pS318-ATG13 antibody (Rockland Immunochemicals Cat #600-401-C49) was diluted in assay diluent and added to each well and incubated at room temperature for 1 hour. Plate wells were washed with ELISA wash buffer. Streptavidin linked to horseradish peroxidase (Thermo Fisher Cat #21140) was diluted in assay diluent and added to each well and incubated at room temperature for 1 hour. Plate wells were washed with ELISA wash buffer. High sensitivity TMB substrate (Biolegend Cat #421101) was added to each well and incubated at room temperature for 20 minutes. The reaction was stopped with 2N Sulfuric Acid. The plate was analyzed at on a plate reader measuring absorbance at 450 nm and 540 nm (background). Signal was calculated by first subtracting the background absorbance at 540 nm from the absorbance at 450 nm for each well. Next, the background corrected absorbance at 450 nm from blank wells was subtracted from test wells. Data was compared to control wells to determine % ATG13 phosphorylation. GraphPad Prism was used to calculate IC50 values.

LRRK2 kinase = molecular target: T3, LRRK2 kinase (Homo sapiens, UniProt Q5S007); assay: Biochemical assay for LRRK2 (coupled pyruvate kinase/lactate dehydrogenase assay); conditions: 26.4 nM LRRK2 (residues 970-2528), 0.1 mM peptide substrate, 1 mM ATP
T3 construct: purchased Thermo Fisher
T3 sequence (Q5S007 with tags, fused parts or gaps): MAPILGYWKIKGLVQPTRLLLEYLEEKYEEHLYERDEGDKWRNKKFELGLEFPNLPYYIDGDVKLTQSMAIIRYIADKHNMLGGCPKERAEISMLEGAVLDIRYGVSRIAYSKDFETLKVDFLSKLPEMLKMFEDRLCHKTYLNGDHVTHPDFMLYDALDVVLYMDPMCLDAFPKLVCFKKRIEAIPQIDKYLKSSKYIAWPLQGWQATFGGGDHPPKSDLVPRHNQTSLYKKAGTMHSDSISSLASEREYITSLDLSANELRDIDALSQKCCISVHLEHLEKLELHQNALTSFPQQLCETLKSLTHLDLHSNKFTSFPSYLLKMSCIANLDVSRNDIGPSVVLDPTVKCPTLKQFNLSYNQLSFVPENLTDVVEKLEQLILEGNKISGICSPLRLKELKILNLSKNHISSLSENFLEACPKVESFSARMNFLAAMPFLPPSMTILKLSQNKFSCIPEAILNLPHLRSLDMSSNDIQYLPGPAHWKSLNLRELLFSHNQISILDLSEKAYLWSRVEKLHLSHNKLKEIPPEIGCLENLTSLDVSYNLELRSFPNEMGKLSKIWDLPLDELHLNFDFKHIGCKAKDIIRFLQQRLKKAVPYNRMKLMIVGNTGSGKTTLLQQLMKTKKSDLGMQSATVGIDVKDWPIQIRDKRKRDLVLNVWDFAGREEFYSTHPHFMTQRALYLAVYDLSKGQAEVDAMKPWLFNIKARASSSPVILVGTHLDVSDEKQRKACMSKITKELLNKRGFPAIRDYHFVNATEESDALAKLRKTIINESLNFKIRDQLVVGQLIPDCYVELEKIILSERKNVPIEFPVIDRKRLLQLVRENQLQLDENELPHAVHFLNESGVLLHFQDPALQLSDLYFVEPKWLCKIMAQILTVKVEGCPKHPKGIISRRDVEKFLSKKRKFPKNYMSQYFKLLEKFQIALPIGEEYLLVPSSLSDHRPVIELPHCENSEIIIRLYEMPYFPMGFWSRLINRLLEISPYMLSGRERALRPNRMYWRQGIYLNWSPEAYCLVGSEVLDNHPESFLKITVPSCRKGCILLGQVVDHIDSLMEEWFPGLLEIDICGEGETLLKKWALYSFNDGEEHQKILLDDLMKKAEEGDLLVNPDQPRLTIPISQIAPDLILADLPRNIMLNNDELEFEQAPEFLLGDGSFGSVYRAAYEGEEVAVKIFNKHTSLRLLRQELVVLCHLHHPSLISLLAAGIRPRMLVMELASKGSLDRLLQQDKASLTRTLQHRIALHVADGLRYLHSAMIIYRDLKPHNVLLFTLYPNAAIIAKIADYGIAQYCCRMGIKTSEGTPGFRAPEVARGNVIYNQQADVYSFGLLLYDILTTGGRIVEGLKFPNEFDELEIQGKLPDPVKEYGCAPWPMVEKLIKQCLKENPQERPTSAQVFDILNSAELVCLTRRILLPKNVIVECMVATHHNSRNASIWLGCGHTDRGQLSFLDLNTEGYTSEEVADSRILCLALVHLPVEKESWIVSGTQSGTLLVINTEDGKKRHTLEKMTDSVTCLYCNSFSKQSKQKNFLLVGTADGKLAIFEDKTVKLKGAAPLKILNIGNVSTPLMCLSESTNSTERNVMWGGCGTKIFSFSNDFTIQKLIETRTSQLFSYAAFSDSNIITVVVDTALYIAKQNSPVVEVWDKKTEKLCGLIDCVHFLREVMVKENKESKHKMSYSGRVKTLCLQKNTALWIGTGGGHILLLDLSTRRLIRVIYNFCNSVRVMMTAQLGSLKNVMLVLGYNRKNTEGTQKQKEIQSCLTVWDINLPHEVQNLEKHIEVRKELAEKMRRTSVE
Description: Example 182. Biochemical Assay for LRRK2 (SEQ. ID NO. 4)
Activity of LRRK2 kinase was determined spectroscopically using a coupled pyruvate kinase/lactate dehydrogenase assay that continuously monitors the ATP hydrolysis-dependent oxidation of NADH (e.g., Schindler et al. Science (2000) 289: 1938-1942). Assays were conducted in 384-well plates (100 uL final volume) using 26.4 nM LRRK2 (Thermo Fisher), 0.1 mM peptide substrate (RLGRDKYKTLRQIRQ (SEQ ID NO: 6)), 1.5 units pyruvate kinase, 2.1 units lactate dehydrogenase, 1 mM phosphoenol pyruvate, 0.28 mM NADH and 1 mM ATP in assay buffer (100 mM Tris, pH 7.5, 15 mM MgCl2, 0.5 mM DTT, 0.004% (w/v) BSA, and 0.004% Triton X-100). Inhibition of LRRK2 was measured by adding serial diluted test compound (final assay concentration of 1% DMSO). A decrease in absorption at 340 nm was monitored continuously for 6 hours at 30° C. on a multi-mode microplate reader (BioTek). The reaction rate was calculated using the 2-3 h time frame. The reaction rate at each concentration of compound was converted to percent inhibition using controls (i.e. reaction with no test compound and reaction with a known inhibitor) and IC50 values were calculated using software routines in Prism (GraphPad software).

T1 sequence (Q8IYT8 with tags, fused parts or gaps): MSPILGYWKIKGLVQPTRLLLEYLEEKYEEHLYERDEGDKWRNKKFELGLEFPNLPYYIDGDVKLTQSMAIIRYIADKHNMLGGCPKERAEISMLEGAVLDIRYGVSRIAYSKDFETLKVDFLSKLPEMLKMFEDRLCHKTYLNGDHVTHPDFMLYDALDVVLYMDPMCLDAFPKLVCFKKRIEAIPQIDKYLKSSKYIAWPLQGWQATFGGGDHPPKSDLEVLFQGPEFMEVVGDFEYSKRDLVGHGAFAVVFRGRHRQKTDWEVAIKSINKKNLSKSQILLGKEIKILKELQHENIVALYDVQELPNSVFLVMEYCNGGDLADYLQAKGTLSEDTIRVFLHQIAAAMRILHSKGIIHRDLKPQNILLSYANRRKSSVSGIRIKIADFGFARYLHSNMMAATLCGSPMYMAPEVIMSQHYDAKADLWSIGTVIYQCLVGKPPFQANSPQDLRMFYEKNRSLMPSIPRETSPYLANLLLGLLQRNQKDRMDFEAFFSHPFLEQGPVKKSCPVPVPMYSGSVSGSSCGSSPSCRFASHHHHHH

Structure (SMILES)	IC50 (ULK2 kinase) [nM]	IC50 (ULK1 kinase) [nM]	IC50 [1] [nM]	IC50 (LRRK2 kinase) [nM]
CCc1nn(C2CCNCC2)cc1Nc1ncc(Br)c(NCCCN2CCCCC2=O)n1 [Example 41]	100 to 500	25 to 100	–	–
CN1CCC(n2cc(Nc3ncc(C4CC4)c(NCCCN4CCCCC4=O)n3)cn2)CC1 [Example 1]	> 500	25 to 100	–	> 600
Cc1nn(C2CCNCC2)cc1Nc1ncc(Cl)c(NCCCN2CCCCC2=O)n1 [Example 27]	100 to 500	25 to 100	> 600	–
Cc1nn(C2CCN(C)CC2)cc1Nc1ncc(C(F)(F)F)c(NCCCN2CCCC2=O)n1 [Example 104]	25 to 100	25 to 100	> 600	300 to 600
CN1CCC(n2cc(Nc3ncc(C4CC4)c(NCCCN4CCN(C)C4=O)n3)cn2)CC1 [Example 147]	> 500	100 to 500	–	> 600
Cc1nn(C2CCN(C3COC3)CC2)cc1Nc1ncc(C(F)(F)F)c(NCCCN2CCCCCC2=O)n1 [Example 91]	100 to 500	1 to 25	300 to 600	–
Cc1nn(C2CCNCC2)cc1Nc1ncc(C(F)(F)F)c(NCCCN2CCCC2=O)n1 [Example 103]	25 to 100	25 to 100	> 600	–
CN1CCC(n2cc(Nc3ncc(C(F)(F)F)c(NCCCN4CCCCCC4=O)n3)cn2)CC1 [Example 78]	1 to 25	1 to 25	10 to 100	–
Cc1nn(C2CCN(C)CC2)cc1Nc1ncc(Br)c(NCCCN2CCCCC2=O)n1 [Example 51]	25 to 100	1 to 25	> 600	–
O=C1CCCCN1CCCNc1nc(Nc2cnn(C3CCNCC3)c2)ncc1Cl [Example 4]	25 to 100	1 to 25	> 600	–
Cc1nn(C2CCNCC2)cc1Nc1ncc(Cl)c(NCCCN2CCCCCC2=O)n1 [Example 86]	100 to 500	25 to 100	> 600	–
CN1CCC(n2cc(Nc3ncc(C4CC4)c(NCCCN4CCCC4=O)n3)cn2)CC1 [Example 84]	–	100 to 500	–	> 600

Next, values leading:

IC50 (ULK2 kinase) [nM]	IC50 (ULK1 kinase) [nM]	IC50 [1] [nM]	IC50 (LRRK2 kinase) [nM]	Structure (SMILES)
100 to 500	1 to 25	10 to 100	100 to 300	Cc1nn(C2CCN(C)CC2)cc1Nc1ncc(Cl)c(NCCCN2CCCCCC2=O)n1 [Example 80, 1-(3-((5-chloro-2-((3-methyl-1-(1-methylpiperidin-4-yl)-1H-pyrazol-4-yl)amino)pyrimidin-4-yl)amino)propyl)azepan-2-one]
1 to 25	1 to 25	100 to 300	–	O=C1CCCCCN1CCCNc1nc(Nc2cnn(C3CCNCC3)c2)ncc1C(F)(F)F [Example 77]
1 to 25	1 to 25	10 to 100	–	CN1CCC(n2cc(Nc3ncc(Cl)c(NCCCN4CCCCCC4=O)n3)cn2)CC1 [Example 81]
1 to 25	1 to 25	100 to 300	–	Cc1nn(C2CCNCC2)cc1Nc1ncc(C(F)(F)F)c(NCCCN2CCCCCC2=O)n1 [Example 83, 1-(3-((2-((3-methyl-1-(piperidin-4-yl)-1H-pyrazol-4-yl)amino)-5-(trifluoromethyl)pyrimidin-4-yl)amino)propyl)azepan-2-one]
25 to 100	1 to 25	100 to 300	–	CN1CCC(n2cc(Nc3ncc(C(F)(F)F)c(NCCCN4CCCC4=O)n3)cn2)CC1 [Example 166]
25 to 100	1 to 25	–	–	CN1CCC(n2cc(Nc3ncc(Cl)c(NCCCN4CCCCC4=O)n3)cn2)CC1 [Example 2]
25 to 100	1 to 25	10 to 100	–	CCN1CC[C@@H](n2cc(Nc3ncc(C(F)(F)F)c(NCCCN4CCCCC4=O)n3)c(C)n2)C1 [Example 25]
25 to 100	1 to 25	> 600	300 to 600	Cc1nn(C2CCNCC2)cc1Nc1ncc(Br)c(NCCCN2CCCCC2=O)n1 [Example 26]
